Reference: patent US11666561B2, “Compounds for use in regulating follicle maturation” (AARHUS UNIVERSITET, priority 2017, dated 2023)

Tested on: primordial-to-primary follicle transition
Assay: In vitro organ culture of mouse ovaries with compound, H&E histology and counting of primordial, primary and secondary follicles
Details: marked (ongoing)
Procedure: Ovaries obtained from mice were washed twice with culture medium. Antagonists or agonists to be tested were dissolved in suitable solvents and added to the medium. As a control medium comprising solvent without the antagonist or agonist was used. One of the ovaries was cultured in a control medium and another was cultured with the antagonist or agonist. The tested antagonists or agonists and their concentrations are outlined in table 2.
Ovaries were incubated with antagonist at 37° C. and 5% CO2 for 24 and 96 hours, respectively (see table 3).
Cultures ovaries were fixed, embedded in paraffin and sliced microscopy. The sectioned ovaries were stained with hematoxylin and eosin (H&E) to visualize the morphology of the ovary by microscopy.
The number of primordial, primary and secondary follicles was determined, and it was determined whether the antagonist or agonist was capable of regulating folliculogenesis.
C57BL/6j×CBA F1 hybrid mice (Janvier Labs, France) were housed and bred in the animal facilities at Department of Biomedicine, Aarhus University. Animals were housed in a 12:12 h controlled light-dark environment and were provided with food and water ad libitum. 7-day-old female pups were used for the study.
Pups were sacrificed and ovaries were excised. Using a stereomicroscope MZ75 (Leica Microsystems, Germany), excess tissue was removed. During the dissection, ovaries were kept at 37° C. in culture medium: aMEM (Thermo Fisher) supplemented with 10% FBS (Thermo Fisher), 100 mIU/mL of FSH (Sigma-Aldrich), 100 IU/mL penicillin (Thermo Fisher), 100 μg/mL streptomycin (Thermo Fisher) and 1% Insulin-Transferrin-Selenium (Thermo Fisher). Isolated ovaries were transferred into well inserts (PET membrane ThinCert, 0.4 μm-pore size; Greiner bio-one) in 24-well plates (Tissue culture treated, cell culture plates; Costar). 200-300 μL of culture medium was added to the well below the insert and up to two ovaries were placed on the membrane of each insert. The culture medium was supplemented with different concentrations of the tested compounds; bpV(HOpic) (Sigma-Aldrich), Temsirolimus (Sigma-Aldrich), Ketotifen (Sigma-Aldrich), 3PO (Sigma-Aldrich), Dorsomorphin (Sigma-Aldrich), AICAR (Sigma-Aldrich), NCG (Sigma-Aldrich), and Dyphylline (Cayman Chemical). Up to six wells in the 24-well plate were used for inserts. Sterile dH2O was added to the rest of the wells to ensure humidity and reduce evaporation. The ovaries were cultured at 37° C., 5% CO2 for four days. 150 μL of medium was replaced every other day with fresh culture medium.
Ovaries kept in organ culture for four days were fixed for 24 hours in 4% paraformaldehyde solution at 4° C. After fixation, ovaries were dehydrated in ethanol series using 70%, 96% and 99.9% ethanol. Xylene was used as clearing agent before the ovaries were infiltrated in paraffin wax. 5 μm-sections of samples in paraffin were cut using a microtome (Cut 6062, SLEE medical, Germany). Paraffin sections were mounted on glass slides, paraffin was melted at 60° C., and the samples were stained with hematoxylin and eosin (using standard protocols).
The samples were deparaffinized by incubating in xylene for 2×15 min. and subsequently rehydrated in series of ethanol; 3×2 min. in 99.9% ethanol, 2 min. in 96% ethanol, and 2 min. in 70% ethanol. The samples were then rinsed in dH2O, stained in hematoxylin for 40 sec., rinsed in dH2O for 5 min., and stained in eosin for 46 sec. The samples were dehydrated in ethanol: 2×2 min. in 96% ethanol, 2×2 min in 99.9% ethanol, and finally cleared up in xylene for at least 30 min before mounting the samples using Eukitt mounting medium (Sigma-Aldrich) and cover glass.
The number of follicles at each developmental stage was counted using an inverted research microscope (DM14000B, Leica Microsystems, Germany). The follicles of every 3rd to 4th section of each ovary were counted and the distribution of follicles in the different stages in percentage was determined.

CC1(C)CCC2(CC1)N[C@@H](C(=O)N[C@@H]1CC[C@@H](C(N)=O)OC1)[C@H](c1ccnc(Cl)c1F)[C@]21C(=O)Nc2cc(Cl)ccc21.Cc1ccc(S(=O)(=O)O)cc1 [DS-3032b, L-Erythro-hexonamide, 2,6-anhydro-5-((((3′R,4'S,5′R)-6″-chloro-4′-(2-chloro-3-fluoro-4-pyridinyl)-1″,2″-dihydro-4,4-dimethyl-2″-oxodispiro(cyclohexane-1,2′-pyrrolidine-3′,3″-(3H)indol)-5′-yl)carbonyl)amino)-3,4,5-trideoxy-, 4-methylbenzenesulfon] was tested, and the Effect (Table 1) was “promotes” and the Effect (Table 2) was “promotes”.

With CCOc1cc2ncc(C#N)c(Nc3ccc(F)c(Cl)c3)c2cc1NC(=O)/C=C/CN(C)C [Pelitinib, (E)-N-[4-(3-chloro-4-fluoroanilino)-3-cyano-7-ethoxyquinolin-6-yl]-4-(dimethylamino)but-2-enamide] the Effect (Table 1) was “promotes” and the Effect (Table 2) was “promotes”.

COc1ccc(Cl)c(Nc2nc3ccccc3nc2NS(=O)(=O)c2cccc(NC(=O)C(C)(C)N)c2)c1 [XI147, 2-amino-N-[3-({3-[(2-chloro-5-methoxyphenyl)amino]quinoxalin-2-yl}sulfamoyl)phenyl]-2-m] was tested, and the Effect (Table 1) was “promotes” and the Effect (Table 2) was “promotes”.

B1: BI 836845: humanised IgG1 monoclonal antibody that binds to and neutralises IGF-1 and IGF-2 (antibody, chains of the INN, looked up, V domains shown)
VH: QVELVESGGGLVQPGGSLRLSCAASGFTFTSYWMSWVRQAPGKGLELVSSITSYGSFTYYADSVKGRFTISRDNSKNTLYLQMNSLRAEDTAVYYCARNMYTHFDSWGQGTLVTVSS
VL: DIVLTQPPSVSGAPGQRVTISCSGSSSNIGSNSVSWYQQLPGTAPKLLIYDNSKRPSGVPDRFSGSKSGTSASLAITGLQSEDEADYYCQSRDTYGYYWVFGGGTKLTVL
In the case of B1, the Effect (Table 1) is reported as “promotes” and the Effect (Table 2) is reported as “promotes”.

B2: MM-141: tetravalent bispecific antibody targeting IGF-1 receptor and ERBB3 (antibody, chains of the INN, looked up, V domains shown)
VH: EVQLLQSGGGLVQPGGSLRLSCAASGFMFSRYPMHWVRQAPGKGLEWVGSISGSGGATPYADSVKGRFTISRDNSKNTLYLQMNSLRAEDTAVYYCAKDFYQILTGNAFDYWGQGTTVTVSS
VL: DIQMTQSPSSLSASLGDRVTITCRASQGISSYLAWYQQKPGKAPKLLIYAKSTLQSGVPSRFSGSGSGTDFTLTISSLQPEDSATYYCQQYWTFPLTFGGGTKVEIK
VH2: QVQLVQSGGGLVQPGGSLRLSCAASGFTFDDYAMHWVRQAPGKGLEWVAGISWDSGSTGYADSVKGRFTISRDNAKNSLYLQMNSLRAEDTALYYCARDLGAYQWVEGFDYWGQGTLVTVSS
VL2: SYELTQDPAVSVALGQTVRITCQGDSLRSYYASWYQQKPGQAPVLVIYGKNNRPSGIPDRFSGSTSGNSASLTITGAQAEDEADYYCNSRDSPGNQWVFGGGTKVTVL
B2 was tested, and the Effect (Table 1) was “promotes” and the Effect (Table 2) was “promotes”.
